From EP0069659A1, “Medicine containing the reaction product of a carboxylic acid and a basic amino acid” (CHANY, Charles, priority 1981, dated 1983)

What was measured:
[1] = test system: mutant du sarcome de Crocker 180 TG; test: Antitumour activity in mice grafted intraperitoneally with ascitic sarcoma (nine experiments, figures 1 to 9); assay type: in vivo, souris Swiss
Method: La tumeur utilisée dans les expériences qui suivent est un mutant du sarcome de Crocker 180 TG qui résiste au traitement par les dérivés puriques.
Les animaux d'expériences sont toujours des souris Swiss de l'élevage susmentionné.
On leur inocule le sarcome par voie intrapéritonéale en utilisant une suspension de 10^6 cellules/0,5 ml.. La quantité inoculée est de 0,5 ml.
Les expériences ont été réalisées en utilisant : • - le butyrate d'arginine ou de lysine, • - l'interféron, • - le corynébacterium parvum (ou CP) de souche Mérieux.
Le butyrate d'arginine a été mis en oeuvre sous la forme et en quantité analogue à ce qui est indiqué plus haut pour l'activité antivirale.
Le CP est administré dans les expériences qui suivent sous la forme d'une dose unique appliquée au moment de la greffe ou trois jours après et se présentant sous la forme d'ampoules de 2 ml comprenant 4 mg en poids sec de germes tués par le formol et la chaleur; on injecte 0,1 ml de cette substance à la souris par voie intrapéritonéale.
On a procédé à neuf expériences indépendantes portant chacune sur plusieurs groupes de 15 animaux.
Dans la première de ces expériences (groupe témoin), on a greffé aux animaux la tumeur seule.
Dans les deuxième et troisième expériences, le butyrate d'amino-acide basique a été appliqué par voie intrapéritonéale à raison de 0,5 ml d'une solution 50 fois millimolaire par souris (c'est-à-dire à raison de respectivement 0,28 mg et 0,24 mg par g de souris), trois fois par semaine (à 48 heures d'intervalle) pendant trois semaines.
Dans la quatrième expérience, on a appliqué l'interféron à raison de 20.000 à 50.000 U.I. sous un volume de 0,5 ml administré à l'animal trois fois par semaine (à 48 heures d'intervalle) pendant trois semaines.
Dans la cinquième expérience, on a appliqué le CP en une dose unique de 200 microgrammes/0,1 ml par animal, administrée par voie intrapéritonéale en même temps ou trois jours après la greffe cellulaire.
Dans les sixième à neuvième expériences, on a appliqué, suivant le cas, le butyrate d'amino-acide basique, l'interféron et/ou le CP aux mêmes doses, au même rythme et aux mêmes moments que lorsque ces produits étaient appliqués seuls dans les expériences précédentes.
Ces histogrammes montrent, en fonction du temps (nombre de jours T), le nombre N d'animaux survivants et, parmi ces animaux survivants, le nombre d'animaux portant des tumeurs décelables.
Ainsi, le nombre d'animaux survivants est porté, pour un jour donné, en ordonnée sous la forme d'une colonne figurant le nombre d'animaux et à l'intérieur de laquelle on matérialise par des hachures le nombre d'animaux porteurs de tumeurs.

[2] = test system: virus de l'encéphalomyocardite de la souris (EMC) de la souche Mengo; test: Antiviral protection of mice against the lethal effect of 100 DL50 of EMC virus; settings: for survie lorsqu'on administre aussi de l'interféron: given together with interféron; for survie relevée au moment où la mortalité cesse dans la série d'animaux témoins: propionate d'arginine 0,252 mg/g, hexanoate d'arginine 0,29 mg/g, virus-only controls 5 sur 30
Text: Dans ces expériences, on met en évidence l'activité antivirale contre l'effet léthal de 100 DL50 du virus de l'encéphalomyocardite.
Les animaux de laboratoire utilisés sont des souris du type "Swiss" provenant d'un élevage propre aux Inventeurs.
Le virus employé est celui de l'encéphalomyocar- dite de la souris (EMC) de la souche Mengo cultivée sur des cellules murines L 929.
Le titre des suspensions de virus est estimé par la "méthode des plages" en utilisant toujours des cellules murines L 929. On admet que 5 unités (UFP) formant des plages, correspondent à une dose léthale DL50.
Le virus est inoculé par voie intrapéritonéale.
On réalise également, à titre de comparaison, les expériences suivantes : • - prétraitement des animaux par le butyrate de sodium avant inoculation du virus EMC, • - traitement par le butyrate d'arginine ou de lysine simultanément à l'injection du virus.
Des groupes de souris témoin sont traités par le virus seul et le solvant (milieu isotonique) seul.
et on a administré pour chaque expérience 0,5 ml de ces solutions par souris de 25 g.
L'interféron a été administré à raison de 20.000 à 25.000 unités internationales par souris par voie intrapéritonéale sous un volume de 0,5 ml et l'immunostimulant, à savoir le corynébacterium parvum, souche Mérieux, a été injecté à l'animal par voie intrapéritonéale à raison de 200 µg/0,1 ml/souris.
L'action antivirale a été étudiée dans les mêmes conditions que plus haut.

[3] = 45 animals at start, butyrate de lysine 0,24 mg/g i.p. 3 times a week for 3 weeks

butyrate de lysine
animaux restants au bout de 44 jours [1, 3]: 2 | porteurs de tumeur parmi les animaux restants au bout de 44 jours [1, 3]: 1 | animaux porteurs de tumeurs au 10e jour ([1]; butyrate 0,5 ml of 50 mM i.p. 3 times a week for 3 weeks (0,28 or 0,24 mg/g), interféron 20.000 à 50.000 U.I. 3 times a week for 3 weeks, CP single dose 200 microgrammes i.p.): 32 sur 45 | animaux survivants après 100 jours d'observation ([1]; same doses as E4, group sizes 45 to 75 animals, no control survives beyond day 28): un seul | effet protecteur ([2]; treatment given simultaneously with the injection of the virus): aucun effet protecteur

hexanoate d'arginine
survie lorsqu'on administre aussi de l'interféron [2]: considérablement augmentée | survie relevée au moment où la mortalité cesse dans la série d'animaux témoins [2]: 11 sur 30

propionate d'arginine
survie lorsqu'on administre aussi de l'interféron [2]: considérablement augmentée | survie relevée au moment où la mortalité cesse dans la série d'animaux témoins [2]: 18 sur 30
